± gives the expanded uncertainty stated by the source.
Test: Molar enthalpy of transition or fusion
Conditions: Crystal; DSC

Molar enthalpy of transition or fusion: 7.33 ± 0.239 kcal/mol
Compound: O=C1/C(=C/c2ccc(Cl)cc2)CCc2ccccc21

From the NIST ThermoML archive (doi:10.1016/j.jct.2014.03.026)
